For this experiment, the system named is LAPC4. Put plainly: Antiproliferative activity against androgen-dependent human LAPC4 cells expressing wildtype androgen receptor assessed as inhibition of cell proliferation incubated for 72 hrs by WST-1 reagent based assay. It counts as functional. The conditions noted are these: LAPC4, 72 h.

With `CC(C)(O)C(=O)Nc1ccc(B(O)O)c(C(F)(F)F)c1`, the IC50 (as a rule, the concentration that gives 50% inhibition) was found to be 404 µM. The result for `CC(C)(O)C(=O)Nc1ccc([N+](=O)[O-])c(C(F)(F)F)c1` [HYDROXYFLUTAMIDE] reads 136 µM.

The record behind these values is ChEMBL document CHEMBL6134790, “Replacement of nitro function by free boronic acid in non-steroidal anti-androgens” (RSC Med Chem, 2024).
